# US10149809B2, “Skin aging inhibitor and concentrate of resveratrol 3-O-α-glucoside” (priority 2014, dated 2018)
# What was measured:
# [1] = Solubility in solvent containing glycerol; assay type: physicochemical
# Experimental: (§1) Approximately 40 mg each of resveratrol 3-O-α-glucoside, resveratrol (Tokyo Chemical Industry Co., Ltd.), and resveratrol 3-O-β-glucoside (Tokyo Chemical Industry Co., Ltd.) was weighed, approximately 70 mg of a solvent (whose composition is shown in Table 18) containing ethanol (Wako Pure Chemical Industries, Ltd.) was added thereto, and the mixture was soaked in a water bath at 25° C. under light-tight conditions, and incubated for 15 hours with occasional stirring. After 15 hours, each of the samples was filtered through a 0.45 μm centrifugal filter, and then the concentration of each of the components in the filtrate was analyzed using HPLC under the same conditions as those described in Production Example 1 above. The dissolved concentration (w/v %) at 25° C. was thus determined.
# The solubility of resveratrol 3-O-α-glucoside was evaluated under the same conditions as those described in Example 18 above, except that a solvent (whose composition is shown in Table 19) containing glycerol (Wako Pure Chemical Industries, Ltd.) was used.
# [2] = system: matrix metalloproteinase 9 (MMP9) gene; assay: MMP9 gene expression in the epidermis (three-dimensional human skin model); assay type: cell-based; conditions: 100 μL, 8 hours, distilled water control = 100%
# Experimental: Using a three-dimensional human skin model, the effect of resveratrol 3-O-α-glucoside on the matrix metalloproteinase 9 (MMP9) gene expression in the epidermis was investigated.
# An aqueous solution containing resveratrol 3-O-α-glucoside at a concentration of 0.02 or 0.1 wt %, or containing resveratrol 3-O-β-glucoside at a concentration of 0.02 wt % was prepared, and the resulting solution was used as a sample solution. One-hundred microliters of the sample solution were administered to the horny layer side of the human skin model (EpiDerm EPI-200; MatTek), and cultured in 5 mL of a special medium (EPI-100-ASY) at 37° C. for 8 hours. After the culture, total RNA was extracted from the skin model, and the level of expression of the MMP9 gene was quantified by real time PCR. As a control group, distilled water was administered to a skin model instead of the sample solution, and total RNA collected from the skin model was used.
# Taking as 100% the level of expression of the MMP9 gene for the control group, a relative ratio of the expression level of the MMP9 gene for the resveratrol 3-O-α-glucoside- or resveratrol 3-O-β-glucoside-supplemented group (MMP9 gene expression ratio, %) was determined. In the measurement of the expression level of the MMP9 gene, PPIA was used for internal standard correction.
# sirtuin 1 gene = assay: Sirtuin 1 gene expression-promoting effect (2); assay type: cell-based; conditions: normal human epidermal keratinocytes, 0.001 wt %, 33 hours, medium without hydrocortisone; control = 100%
# Experimental: Normal human epidermal keratinocytes were seeded into 12-well culture plates at 5×10^4 cells per well. As the medium, EpiLife KG-2 medium supplemented with insulin, hEGF, hydrocortisone, anti-microbial agents, and BPE was used (basal medium), and the cells were preincubated in 5% CO2 at 37° C. for 48 hours. The medium was removed, and then replaced with a sample medium obtained by removing hydrocortisone from the above-described basal medium, and by supplementing the resulting medium with resveratrol 3-O-α-glucoside to a concentration of 0.001 wt %, and the cells were cultured in 5% CO2 at 37° C. For comparison, the cells were cultured under the same conditions as described above, except that resveratrol 3-O-α-glucoside in the sample medium was replaced by resveratrol 3-O-β-glucoside. After 33 hours of culture, total RNA was extracted from the cells, and the level of expression of the sirtuin 1 gene was quantified by real time PCR. As a control group, cells were cultured without resveratrol 3-O-α-glucoside or resveratrol 3-O-β-glucoside, and total RNA collected from these cells was used. Taking as 100% the level of expression of the sirtuin 1 gene for the control group, a relative ratio of the expression level of the sirtuin 1 gene for the resveratrol 3-O-α-glucoside- or resveratrol 3-O-β-glucoside-supplemented group (SIRT 1 gene expression ratio, %) was determined. […]
# Solubility in water = assay type: physicochemical
# Experimental: as §1, with “5” for “40”, “1 mL” for “70 mg”, “water” for “a solvent (whose composition is shown in Table 18) containing ethanol (Wako Pure Chemical Industries, Ltd.)”, “20” for “15”, “%) in water” for “%)”
# [3] = system: skin model (MEL-312B; MatTek); assay: Melanogenesis suppressing effect in skin model (amount of melanin, visual observation); assay type: cell-based; conditions: 16 days; for Relative Amount of Melanin: PBS control group = 100%; for Visual Observation: compared with PBS control group
# Experimental: Resveratrol 3-O-α-glucoside, resveratrol (Tokyo Chemical Industry Co., Ltd.), or resveratrol 3-O-β-glucoside (Tokyo Chemical Industry Co., Ltd.) was prepared into a 0.2 wt % solution or suspension with the addition of PBS, and the resulting solution or suspension was used as a test substance. A skin model (MEL-312B; MatTek) was used, and 50 μL of the test substance was added to the horny layer side of the skin model and cultured in a special medium (EPI-100NMM-113; MatTek) at 37° C. for 16 days. On days 2, 4, 7, 9, 11, and 14, the medium and the test substance were replaced with fresh ones. As a control group, the same operation was performed using PBS instead of the test substance.
# After 16 days of culture, the skin model was visually observed, and the amount of melanin in the skin model was evaluated. The amount of melanin was measured using the following method. Initially, the collected skin model was subjected to enzymatic degradation by proteinase-K, and was subsequently homogenated in PBS containing 1% triton X-100. Melanin was then extracted by washing with 10% TCA and ethanol. Next, the extracted melanin was dissolved in 0.5 mL of 1N-NaOH containing 10% DMSO at 80° C. for 2 hours, and the amount of melanin was quantified by measuring absorbance at 470 nm.
# Resveratrol 3-O-α-glucoside was prepared into a 0.2 wt % solution, a 0.1 wt % solution, or a 0.01 wt % solution with the addition of PBS. The resulting solution was used as a test substance, and the melanogenesis suppressing effect was evaluated using the same method as that of Example 1 above. […]
# [4] = Solubility in solvent containing propylene glycol; assay type: physicochemical
# Experimental: as §1
# The solubility of resveratrol 3-O-α-glucoside was evaluated under the same conditions as those described in Example 18 above, except that a solvent (whose composition is shown in Table 20) containing propylene glycol (Wako Pure Chemical Industries, Ltd.) was used.
# [5] = EpiDerm EPI-200, 0.02 wt % aqueous solution
smiles,measurement,setting,value
"OC[C@H]1O[C@H](Oc2cc(O)cc(C=Cc3ccc(O)cc3)c2)[C@H](O)[C@@H](O)[C@@H]1O [Resveratrol 3-O-α-Glucoside, resveratrol 3-O-α-glucoside]",dissolved concentration,[1],exceeded 20 w/v %
same,MMP9 Gene Expression Ratio (%),[2]; [5],85%
same,MMP9 Gene Expression Ratio (%),"[2]; EpiDerm EPI-200, 0.1 wt % aqueous solution",66%
same,SIRT 1 Gene Expression Ratio (%),sirtuin 1 gene,141%
same,Dissolved Concentration (μg/mL) in Water,Solubility in water; 20 h,2900 µg/mL
same,Relative Amount of Melanin,[3]; 0.01 wt % in PBS,88%
same,Visual Observation,[3]; 0.01 wt % in PBS,slightly whiter than the
same,Relative Amount of Melanin,[3]; 0.1 wt % in PBS,67%
same,Relative Amount of Melanin,"[3]; 0.2 wt % in PBS, 50 μL",46%
same,dissolved concentration,[4],exceeded 30 w/v %
same,Dissolved Concentration (w/v %) at 25° C.,[4]; 15 h,0.3 w/v %
"OC[C@H]1O[C@@H](Oc2cc(O)cc(/C=C/c3ccc(O)cc3)c2)[C@H](O)[C@@H](O)[C@@H]1O [Resveratrol 3-O-β-Glucoside, resveratrol 3-O-β-glucoside]",Dissolved Concentration (w/v %) at 25° C.,[1]; Glycerol:Water 0:100 (weight ratio),0.04 w/v %
same,Dissolved Concentration (w/v %) at 25° C.,[1]; Glycerol:Water 10:90 (weight ratio),0.05 w/v %
same,Dissolved Concentration (w/v %) at 25° C.,[1]; Glycerol:Water 25:75 (weight ratio),0.09 w/v %
same,Dissolved Concentration (w/v %) at 25° C.,[1]; Glycerol:Water 50:50 (weight ratio),0.3 w/v %
same,Dissolved Concentration (w/v %) at 25° C.,[1]; Glycerol:Water 75:25 (weight ratio),1.1 w/v %
same,Dissolved Concentration (w/v %) at 25° C.,[1]; Glycerol:Water 90:10 (weight ratio),1.9 w/v %
same,Dissolved Concentration (w/v %) at 25° C.,[1]; Glycerol:Water 100:0 (weight ratio),3.1 w/v %
same,MMP9 Gene Expression Ratio (%),[2]; [5],124%
same,SIRT 1 Gene Expression Ratio (%),sirtuin 1 gene,120%
same,Dissolved Concentration (μg/mL) in Water,"Solubility in water; water, 25° C., 20 hours",370 µg/mL
same,Visual Observation,"[3]; 0.2 wt % in PBS, 50 μL to horny layer side",the same as the control
same,Relative Amount of Melanin,"[3]; 0.2 wt % in PBS, 50 μL",79%
same,Dissolved Concentration (w/v %) at 25° C.,[4]; Propylene Glycol:Water 0:100 (weight ratio),0.04 w/v %
same,Dissolved Concentration (w/v %) at 25° C.,[4]; Propylene Glycol:Water 5:95 (weight ratio),0.04 w/v %
same,Dissolved Concentration (w/v %) at 25° C.,[4]; Propylene Glycol:Water 10:90 (weight ratio),0.06 w/v %
same,Dissolved Concentration (w/v %) at 25° C.,[4]; Propylene Glycol:Water 15:85 (weight ratio),0.09 w/v %
same,Dissolved Concentration (w/v %) at 25° C.,[4]; Propylene Glycol:Water 20:80 (weight ratio),0.1 w/v %
same,Dissolved Concentration (w/v %) at 25° C.,[4]; Propylene Glycol:Water 25:75 (weight ratio),0.2 w/v %
same,Dissolved Concentration (w/v %) at 25° C.,[4]; Propylene Glycol:Water 50:50 (weight ratio),3.3 w/v %
same,Dissolved Concentration (w/v %) at 25° C.,[4]; Propylene Glycol:Water 75:25 (weight ratio),11.5 w/v %
same,Dissolved Concentration (w/v %) at 25° C.,[4]; Propylene Glycol:Water 90:10 (weight ratio),12.5 w/v %
same,Dissolved Concentration (w/v %) at 25° C.,[4]; Propylene Glycol:Water 100:0 (weight ratio),11.3 w/v %
